Values after ≈ are worked out from the molar mass of the structure shown.
Experiments:
[1] = target: wild-type E. coli RNAP (Escherichia coli, UniProt P0A8V2); assay: In vitro transcription on T7A1 promoter template; assay type: biochemical; conditions: transcription started with ATP, in the absence of the CpA primer
[2] = target: E. coli RNAP βH526Y (Escherichia coli, UniProt P0A8V2, H526Y); assay type: biochemical; conditions: at 2.5 mg/mL; mutation at βH526
[3] = target: E. coli RNAP βH526P (Escherichia coli, UniProt P0A8V2, H526P); assay type: biochemical; conditions: at 2.5 mg/mL; mutation at βH526
[4] = target: E. coli RNAP βH526R (Escherichia coli, UniProt P0A8V2, H526R); assay type: biochemical; conditions: at 2.5 mg/mL; mutation at βH526
[5] = target: E. coli RNAP βR143A (Escherichia coli, UniProt P0A8V2, R143A); assay type: biochemical; conditions: βR143A RNAP against wild-type RNAP
[6] = target: M. smegmatis RNAP (Mycolicibacterium smegmatis, UniProt P60281); assay: In vitro transcription on T7A1 promoter template; assay type: biochemical; conditions: performed as with E. coli RNAP, started with ATP
[7] = test system: methicillin-resistant Staphylococcus aureus (MRSA); assay: Agar dilution MIC

## CO[C@H]1/C=C/O[C@@]2(C)Oc3c(C)c(O)c4c(O)c(c(/C=N/N5CCN(C)CC5)c(O)c4c3C2=O)NC(=O)/C(C)=C\C=C\[C@H](C)[C@H](O)[C@@H](C)[C@@H](O)[C@@H](C)[C@H](OC(C)=O)[C@@H]1C [RIF, rifampicin]
[1]
  formation of the triphosphorylated trinucleotide, pppApUpC: allowed some of its production
  inhibition of formation of the first dinucleotide, pppApU: 3 fold
[2]
  inhibition of RNAP: no inhibition
[3]
  inhibition of RNAP: no inhibition
[4]
  inhibition of RNAP: no inhibition
[5]
  effect of the βR143A mutation on sensitivity: little effect
[6]
  synthesis of the trinucleotide (pppApUpC): partly allowed
[7]; S. aureus Bel 97597
  MIC: 2 µg/mL (≈ 2.43 µM)
[7]; S. aureus Bel 97598
  MIC: > 128 µg/mL
[7]; S. aureus Fin 54511
  MIC: > 128 µg/mL
[7]; S. aureus Fin 54518
  MIC: > 128 µg/mL

— PMC6202310 (Molecular Cell, 2018)
